From patent US11149040B2, “Fused triazole agonists of the APJ receptor” (AMGEN INC., priority 2017, dated 2021)

Target: human APJ receptor (Homo sapiens (Human), UniProt P35414)
Assay: [35S]GTPγS binding assay on membranes from CHO cells stably expressing human APJ receptor
Format: biochemical
Conditions: read-out: Activity hAPJ SPA EC50 IP
Experimental: [^35S]GTPγS Binding The human APJ receptor was cloned by polymerase chain reaction and the gene encoding the receptor was subcloned in pFLAG-CMV™-3 expression vector (Sigma, Saint Louis, Mo. USA) in-house at Amgen. A GTPγS binding assay was performed on membranes prepared from CHO cells stably expressing human APJ receptor. The optimum experimental conditions for the concentrations of GDP, MgCl2, and NaCl in the assay buffer were initially determined. […] Incubation was at RT for 90 min and the microplate was read using a ViewLux™ ultra HTS Microplate Imager (PerkinElmer, Inc.). All the results presented are means of several independent experiments and analyzed by non-linear regression methods using the commercially available program Prism (GraphPad, San Diego, Calif.) providing the EC50 values detailed in Table 13.

Chain of human APJ receptor (P35414 whole entry): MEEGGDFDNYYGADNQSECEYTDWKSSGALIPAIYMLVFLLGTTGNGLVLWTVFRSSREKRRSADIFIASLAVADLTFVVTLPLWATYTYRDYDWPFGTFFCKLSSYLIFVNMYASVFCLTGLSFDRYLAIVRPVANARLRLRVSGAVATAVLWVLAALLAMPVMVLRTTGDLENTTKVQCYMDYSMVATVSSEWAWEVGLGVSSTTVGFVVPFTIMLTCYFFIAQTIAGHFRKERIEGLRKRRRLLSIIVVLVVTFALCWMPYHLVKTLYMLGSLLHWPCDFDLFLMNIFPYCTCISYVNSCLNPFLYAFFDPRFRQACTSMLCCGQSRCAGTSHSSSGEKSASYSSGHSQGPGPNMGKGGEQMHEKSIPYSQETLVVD

C=C1COc2ncccc2-c2nnc(NS(=O)(=O)[C@@H](C)[C@@H](OC(C)C)c3ncc(Cl)cn3)n21 [Example 60.0, (1S,2S)-1-(5-chloro-2-pyrimidinyl)-N-(5-methylidene-5,6-dihydropyrido[3,2-f][1,2,4]triazolo[4,3-d][1,4]oxazepin-3-yl)-1-(2-propanyloxy)-2-propanesulfonamide]
EC50: 850 nM

COC[C@@H]1COc2ccc(OC)nc2-c2nnc(NS(=O)(=O)[C@@H](C)[C@@H](OC(C)C)c3ncc(C)cn3)n21 (single isomer, unassigned) [Example 14.0, (1S,2S)-N-((5R)-10-methoxy-5-(methoxymethyl)-5,6-dihydropyrido[2,3-1][1,2,4]triazolo[4,3-d][1,4]oxazepin-3-yl)-1-(5-methyl-2-pyrimidinyl)-1-(2-propanyloxy)-2-propanesulfonamide or (1S,2S)-N-((5S)-10-methoxy-5-(methoxymethyl)-5,6-dihydropyrido[2,3-1][1,2,4]triazolo[4,3-d][1,4]oxazepin-3-yl)-1-(5-methyl-2-pyrimidinyl)-1-(2-propanyloxy)-2-propanesulfonamide]
EC50: 400 nM

Cc1cnc([C@@H](OC(C)C)[C@H](C)S(=O)(=O)Nc2nnc3n2[C@H](CO)COc2ncccc2-3)nc1 (mixture of isomers) [Example 57.0, (1R,2S)-N-((5R)-5-(hydroxymethyl)-5,6-dihydropyrido[3,2-f][1,2,4]triazolo[4,3-d][1,4]oxazepin-3-yl)-1-(5-methyl-2-pyrimidinyl)-1-(2-propanyloxy)-2-propanesulfonamide and (1R,2S)-N-((5S)-5-(hydroxymethyl)-5,6-dihydropyrido[3,2-f][1,2,4]triazolo[4,3-d][1,4]oxazepin-3-yl)-1-(5-methyl-2-pyrimidinyl)-1-(2-propanyloxy)-2-propanesulfonamide]
EC50: > 12500 nM

COC[C@@H]1COc2cnccc2-c2nnc(NS(=O)(=O)[C@@H](C)[C@@H](OC(C)C)c3ncc(C)cn3)n21 (stereo in doubt) [Example 43.0, (1S,2S)-N-((5R)-5-(methoxymethyl)-5,6-dihydropyrido[4,3-f][1,2,4]triazolo[4,3-d][1,4]oxazepin-3-yl)-1-(5-methyl-2-pyrimidinyl)-1-(2-propanyloxy)-2-propanesulfonamide and (1S,2S)-N-((5S)-5-(methoxymethyl)-5,6-dihydropyrido[4,3-f][1,2,4]traizolo[4,3-d][1,4]oxazepin-3-yl)-1-(5-methyl-2-pyrimidinyl)-1-(2-propanyloxy)-2-propanesulfonamide]
EC50: 1200 nM

C=C1COc2ccccc2-c2nnc(NS(=O)(=O)[C@@H](C)[C@@H](OC(C)C)c3ncc(C)cn3)n21 [Example 17.0, (1S,2S)-N-(5-Methylidene-5,6-dihydro[1,2,4]triazolo[4,3-d][1,4]benzoxazepin-3-yl)-1-(5-methyl-2-pyrimidinyl)-1-(2-propanyloxy)-2-propanesulfonamide]
EC50: 1000 nM

COC[C@@H]1COc2ccc(F)cc2-c2nnc(NS(=O)(=O)[C@@H](C)[C@H](OC)c3ncc(C)cn3)n21 (stereo in doubt) [Example 24.0, (1R,2S)-N-((5R)-10-fluoro-5-(methoxymethyl)-5,6-dihydro[1,2,4]traizolo[4,3-d][1,4]benzoxazepin-3-yl)-1-methoxy-1-(5-methyl-2-pyrimidinyl)-2-propanesulfonamide and (1R,2S)-N-((5S)-10-fluoro-5-(methoxymethyl)-5,6-dihydro[1,2,4]triazolo[4,3-d][1,4]benzoxazepin-3-yl)-1-methoxy-1-(5-methyl-2-pyrimidinyl)-2-propanesulfonamide]
EC50: 260 nM

COC[C@@H]1COc2c(OC)cccc2-c2nnc(NS(=O)(=O)[C@@H](C)[C@@H](OC(C)C)c3ncc(C)cn3)n21 (single isomer, unassigned) [Example 38.0, (1S,2S)-N-((5R)-8-methoxy-5-(methoxymethyl)-5,6-dihydro[1,2,4]traizolo[4,3-d][1,4]benzoxazepin-3-yl)-1-(5-methyl-2-pyrimidinyl)-1-(2-propanyloxy)-2-propanesulfonamide or (1S,2S)-N-((5S)-8-methoxy-5-(methoxymethyl)-5,6-dihydro[1,2,4]triazolo[4,3-d][1,4]benzoxazepin-3-yl)-1-(5-methyl-2-pyrimidinyl)-1-(2-propanyloxy)-2-propanesulfonamide]
EC50: 64 nM

COC[C@@H]1COc2ccc(F)cc2-c2nnc(NS(=O)(=O)[C@@H](C)[C@H](OC)c3ncc(C)cn3)n21 (single isomer, unassigned) [Example 27.0, (1R,2S)-N-((5R)-10-fluoro-5-(methoxymethyl)-5,6-dihydro[1,2,4]triazolo[4,3-d][1,4]benzoxazepin-3-yl)-1-methoxy-1-(5-methyl-2-pyrimidinyl)-2-propanesulfonamide or (1R,2S)-N-((5S)-10-fluoro-5-(methoxymethyl)-5,6-dihydro[1,2,4]triazolo[4,3-d][1,4]benzoxazepin-3-yl)-1-methoxy-1-(5-methyl-2-pyrimidinyl)-2-propanesulfonamide]
EC50: 490 nM

COC[C@@H]1COc2ncccc2-c2nnc(NS(=O)(=O)[C@@H](C)[C@@H](OC(C)C)c3ncc(Cl)cn3)n21 (mixture of isomers) [Example 37.0, (1S,2S)-1-(5-chloro-2-pyrimidinyl)-N-((5R)-5-(methoxymethyl)-5,6-dihydropyrido[3,2-f][1,2,4]triazolo[4,3-d][1,4]oxazepin-3-yl)-1-(2-propanyloxy)-2-propanesulfonamide and (1S,2S)-1-(5-chloro-2-pyrimidinyl)-N-((5S)-5-(methoxymethyl)-5,6-dihydropyrido[3,2-f][1,2,4]triazolo[4,3-d][1,4]oxazepin-3-yl)-1-(2-propanyloxy)-2-propanesulfonamide]
EC50: 30 nM

COC[C@@H]1COc2ccc(F)cc2-c2nnc(NS(=O)(=O)[C@@H](C)[C@@H](OC(C)C)c3ncc(C)cn3)n21 (single isomer, unassigned) [Example 25.0, (1S,2S)-N-((5R)-10-fluoro-5-(methoxymethyl)-5,6-dihydro[1,2,4]traizolo[4,3-d][1,4]benzoxazepin-3-yl)-1-(5-methyl-2-pyrimidinyl)-1-(2-propanyloxy)-2-propanesulfonamide or (1S,2S)-N-((5S)-10-fluoro-5-(methoxymethyl)-5,6-dihydro[1,2,4]traizolo[4,3-d][1,4]benzoxazepin-3-yl)-1-(5-methyl-2-pyrimidinyl)-1-(2-propanyloxy)-2-propanesulfonamide]
EC50: 28 nM

COC[C@@H]1COc2ccc(OC)nc2-c2nnc(NS(=O)(=O)[C@@H](C)[C@H](C)c3ncc(OC)cn3)n21 (single isomer, unassigned) [Example 6.0, (2S,3R)-N-((5R)-10-methoxy-5-(methoxymethyl)-5,6-dihydropyrido[2,3-f][1,2,4]triazolo[4,3-d][1,4]oxazepin-3-yl)-3-(5-methoxy-2-pyrimidinyl)-2-butanesulfonamide or (2S,3R)-N-((5S)-10-methoxy-5-(methoxymethyl)-5,6-dihydropyrido[2,3-f][1,2,4]triazolo[4,3-d][1,4]oxazepin-3-yl)-3-(5-methoxy-2-pyrimidinyl)-2-butanesulfonamide]
EC50: 2300 nM

COC[C@@H]1COc2ncccc2-c2nnc(NS(=O)(=O)[C@@H](C)[C@H](OC(C)C)c3ncc(C)cn3)n21 (single isomer, unassigned) [Example 67.0, (1R,2S)-N-((5R)-5-(methoxymethyl)-5,6-dihydropyrido[3,2-f][1,2,4]triazolo[4,3-d][1,4]oxazepin-3-yl)-1-(5-methyl-2-pyrimidinyl)-1-(2-propanyloxy)-2-propanesulfonamide or (1R,2S)-N-((5S)-5-(methoxymethyl)-5,6-dihydropyrido[3,2-f][1,2,4]triazolo[4,3-d][1,4]oxazepin-3-yl)-1-(5-methyl-2-pyrimidinyl)-1-(2-propanyloxy)-2-propanesulfonamide]
EC50: 250 nM

CC(C)O[C@@H](c1ncc(Cl)cn1)[C@H](C)S(=O)(=O)Nc1nnc2n1[C@H](CO)COc1ncccc1-2 (mixture of isomers) [Example 31.0, (1S,2S)-1-(5-chloro-2-pyrimidinyl)-N-((5R)-5-(hydroxymethyl)-5,6-dihydropyrido[3,2-f][1,2,4]triazolo[4,3-d][1,4]oxazepin-3-yl)-1-(2-propanyloxy)-2-propanesulfonamide and (1S,2S)-1-(5-chloro-2-pyrimidinyl)-N-((5S)-5-(hydroxymethyl)-5,6-dihydropyrido[3,2-f][1,2,4]triazolo[4,3-d][1,4]oxazepin-3-yl)-1-(2-propanyloxy)-2-propanesulfonamide]
EC50: 720 nM

Cc1cnc([C@H](OC(C)C)[C@H](C)S(=O)(=O)Nc2nnc3n2-c2c(F)cccc2/C=C\C[C@@H]3C)nc1 (single isomer, unassigned) [Example 52.0]
EC50: > 12500 nM

COC[C@@H]1COc2c(OC)cccc2-c2nnc(NS(=O)(=O)[C@@H](C)[C@H](C)c3ncc(OC)cn3)n21 (single isomer, unassigned) [Example 8.0, (2S,3R)-N-((5R)-8-methoxy-5-(methoxymethyl)-5,6-dihydro[1,2,4]triazolo[4,3-d][1,4]benzoxazepin-3-yl)-3-(5-methoxy-2-pyrimidinyl)-2-butanesulfonamide or (2S,3R)-N-((5S)-8-methoxy-5-(methoxymethyl)-5,6-dihydro[1,2,4]triazolo[4,3-d][1,4]benzoxazepin-3-yl)-3-(5-methoxy-2-pyrimidinyl)-2-butanesulfonamide]
EC50: 270 nM
